Data: patent US20220144815A1, “1,3,4-OXADIAZOLES AND THEIR DERIVATIVES AS NEW ANTIFUNGAL AGENTS” (Bayer Aktiengesellschaft, priority 2018, published 2022)
Where two headings read alike, the source gives them in different places.

Tests used:
[1] = Log P by HPLC on reversed phase columns, method [a] (EEC directive 79/831 Annex V.A8); format: physicochemical; settings: reversed phase HPLC column
How it was run: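 Reversed-phase HPLC with LC-UV detection per EEC directive 79/831 Annex V.A8, acidic eluent of 0.1% formic acid in water and acetonitrile, linear gradient 10% to 95% acetonitrile. Log P derived from retention times, calibrated against straight-chain alkan-2-ones (C3–C16) by linear interpolation.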

[2] = test system: Colletotrichum lindemuthianum; test: Example B: in vitro cell test, spore germination and mycelium growth in liquid culture; format: cell-based; settings: 144 h, 20 ppm of tested compound, 6 days incubation, read-out: efficacy (inhibition of fungal growth)
How it was run: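 Compounds in DMSO (final ≤1%) added to glucose/peptone/yeast extract liquid medium containing C. lindemuthianum spores. After 6 days incubation, mycelium growth measured spectrometrically; inhibition calculated from absorbance versus compound-free control wells.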

Botrytis cinerea = test: Example C: in vivo preventive test (grey mould) on gherkin or cabbage; settings: 500 ppm of active ingredient, preventive spray, evaluated 4 to 5 days after inoculation, read-out: efficacy
Procedure: Solvent: 5% by volume of dimethyl sulfoxide • 10% by volume of acetone Emulsifier: 1 μl of Tween® 80 per mg of active ingredient The tested compounds were made soluble and homogenized in a mixture of dimethyl sulfoxide/acetone/Tween® 80 and then diluted in water to the desired concentration. The young plants of gherkin or cabbage were treated by spraying the tested compound prepared as described above. Control plants were treated only with an aqueous solution of acetone/dimethyl sulfoxide/Tween® 80. After 24 hours, the plants were contaminated by spraying the leaves with an aqueous suspension of Botrytis cinerea spores. The contaminated gherkin plants were incubated for 4 to 5 days at 17° C. and at 90% relative humidity. The contaminated cabbage plants were incubated for 4 to 5 days at 20° C. and at 100% relative humidity. The test was evaluated 4 to 5 days after the inoculation. 0% means an efficacy which corresponds to that of the control plants while an efficacy of 100% means that no disease was observed.

Puccinia recondita = test: Example D: in vivo preventive test (brown rust on wheat); settings: 264 h, 500 ppm of tested compound, preventive spray, evaluated 11 days after inoculation, read-out: efficacy
Procedure: Solvent: 5% by volume of dimethyl sulfoxide • 10% by volume of acetone Emulsifier: 1 μL of Tween® 80 per mg of active ingredient The tested compounds were made soluble and homogenized in a mixture of dimethyl sulfoxide/acetone/Tween® 80 and then diluted in water to the desired concentration. The young plants of wheat were treated by spraying the tested compound prepared as described above. Control plants were treated only with an aqueous solution of acetone/dimethyl sulfoxide/Tween® 80. After 24 hours, the plants were contaminated by spraying the leaves with an aqueous suspension of Puccinia recondita spores. The contaminated wheat plants were incubated for 24 hours at 20° C. and at 100% relative humidity and then for 10 days at 20° C. and at 70-80% relative humidity. The test was evaluated 11 days after the inoculation. 0% means an efficacy which corresponds to that of the control plants while an efficacy of 100% means that no disease was observed.

Phakopsora pachyrhizi = test: Example F: in vivo preventive test (soybeans), DMSO/acetone/Tween 80; settings: 288 h, 500 ppm of tested compound, preventive spray, soybean, evaluated 12 days after inoculation, read-out: efficacy
How it was run: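 Compounds in DMSO/acetone/Tween 80, diluted in water, were sprayed preventively onto young plants, which were spore-inoculated 24 h later. Plants were held 24 h at 24 °C and 100% RH, then 11 days at 24 °C and 70–80% RH. Scored 12 days post-inoculation: 0% = control-level disease, 100% = no disease.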

Alternaria brassicae = test: Example E: in vivo preventive test (cabbage); settings: 144 h, 500 ppm of tested compound, preventive spray, evaluated 6 days after inoculation, read-out: efficacy
How it was run: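 Young cabbage plants sprayed with compound in DMSO/acetone/Tween 80 diluted in water, then inoculated 24 hours later with Alternaria brassicae spore suspension. Kept 6 days at 20° C., 100% relative humidity. Efficacy scored 6 days post-inoculation: 0% as solvent-treated controls, 100% no disease.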

Phakosporra pachirrhizi = test: Example A: fungicidal activity, spore germination in 96-well plates; format: cell-based; settings: 4 hours at 21° C., read-out: efficacy (inhibition of the fungal germination); for inhibition at 20 ppm: 20 ppm of active ingredient; for inhibition at 30 ppm: 30 ppm of active ingredient
Procedure: Cryo-conserved wild-type spores of the biotroph Phakosporra pachirrhizi were humidified in dedicated chamber overnight at 18° C. in the dark. The next day, a solution of spores at 7×10^3 sp/mL was prepared in a water based growth medium (H2O+0.2 mM MOPS at pH 7+0.01% Tween 20) and spores were distributed in a 96-MTPS (final volume of 200 μL per well) thanks to a dispenser robot. Each molecule was tested at 10 doses (from 30 to 0.002 ppm final concentration) and accordingly 1.2 μL of each dilution was transferred in dedicated well to end-up with a final concentration of 0.6% DMSO. Wild-type spores and molecules were incubated for 4 hours at 21° C., and 6 images par well were then acquired with Transmitted Light images (Image Xpress Micro microscope, Molecular Devices, Objective 10×, 6 images per well). Detection and quantification of the number of germinated spores per image was performed with a dedicated in-house developed algorithm (MetaXpress software, Molecular Devices).

[3] = method [a], HPLC on reversed phase columns, read-out: logP
[4] = log P determined according to method [a] (HPLC on reversed phase columns), read-out: logP
[5] = Method A: LC-UV, acidic range, 0.1% formic acid in water and acetonitrile, read-out: Log P

SMILES	inhibition of growth at 20 µg/mL [2]	pest or weed control at 500 ppm (Botrytis cinerea)	pest or weed control at 500 µg/mL (Puccinia recondita)	pest or weed control at 500 µg/mL (Phakopsora pachyrhizi)	chromatographic logP [1, 4]	inhibition at 20 ppm (Phakosporra pachirrhizi)	chromatographic logP [1, 5]	further results
Fc1ccc(C(Nc2ncc(-c3nnc(C(F)F)o3)cn2)C(F)(F)F)cc1 (racemic) [I.181, 5-[5-(difluoromethyl)-1,3,4-oxadiazol-2-yl]-N-[(1RS)-2,2,2-trifluoro-1-(4-fluorophenyl)ethyl]pyrimidin-2-amine]	80 to 89%	70 to 79%	90 to 100%	90 to 100%	–	–	–	chromatographic logP [1, 3]: 3.22
FC(F)c1nnc(-c2cnc(N[C@@H]3C[C@H]3c3ccccc3)nc2)o1 (racemic) [I.196, 5-[5-(difluoromethyl)-1,3,4-oxadiazol-2-yl]-N-[rac-(1R,2S)-2-phenylcyclopropyl]pyrimidin-2-amine]	70 to 79%	90 to 100%	–	90 to 100%	–	–	–	chromatographic logP [1, 3]: 2.94; pest or weed control at 500 µg/mL (Alternaria brassicae): 90 to 100%
O=C(Nc1ccc(F)cc1F)c1ccc(-c2nnc(C(F)F)o2)cc1 [I.027, 4-[5-(difluoromethyl)-1,3,4-oxadiazol-2-yl]-N-(2,4-difluorophenyl)benzamide]	–	–	–	–	–	–	–	inhibition at 4 ppm (Phakosporra pachirrhizi; 4 ppm of active ingredient): ≥ 70%
Fc1ccccc1C1(Nc2ncc(-c3nnc(C(F)F)o3)cn2)CC1 [I.144, 5-[5-(difluoromethyl)-1,3,4-oxadiazol-2-yl]-N-[1-(2-fluorophenyl)cyclopropyl]pyrimidin-2-amine]	90 to 100%	–	90 to 100%	90 to 100%	2.85	≥ 70%	–	–
O=C(O)c1ccc(-c2nnc(C(F)(F)F)o2)cc1 [I.004, 4-[5-(trifluoromethyl)-1,3,4-oxadiazol-2-yl]benzoic acid]	–	–	–	–	–	–	–	inhibition at 30 ppm (Phakosporra pachirrhizi): ≥ 70%
CCc1noc(-c2ccc(-c3nnc(C(F)(F)F)o3)cc2)n1 [I.018, 3-ethyl-5-{4-[5-(trifluoromethyl)-1,3,4-oxadiazol-2-yl]phenyl}-1,2,4-oxadiazole]	–	–	–	–	–	–	3.59	inhibition at 30 ppm (Phakosporra pachirrhizi): ≥ 70%
Fc1ccc(C2(Nc3ncc(-c4nnc(C(F)F)o4)cn3)CC2)cc1 [I.146, 5-[5-(difluoromethyl)-1,3,4-oxadiazol-2-yl]-N-[1-(4-fluorophenyl)cyclopropyl]pyrimidin-2-amine]	70 to 79%	90 to 100%	90 to 100%	90 to 100%	2.75	–	–	pest or weed control at 500 µg/mL (Alternaria brassicae): 90 to 100%
FC(F)c1nnc(-c2cnc(NC3(c4ccccc4)CCC3)nc2)o1 [I.134, 5-[5-(difluoromethyl)-1,3,4-oxadiazol-2-yl]-N-(1-phenylcyclobutyl)pyrimidin-2-amine]	90 to 100%	–	70 to 79%	90 to 100%	–	≥ 70%	3.18	–
O=C(O)c1ccc(-c2nnc(C(F)(F)F)s2)cc1 [I.008, 4-[5-(trifluoromethyl)-1,3,4-thiadiazol-2-yl]benzoic acid]	–	–	–	–	–	≥ 70%	1.41	–
FC(F)(F)c1nnc(-c2cnc(NC3(c4ccccc4)CCC3)nc2)o1 [I.160, N-(1-phenylcyclobutyl)-5-[5-(trifluoromethyl)-1,3,4-oxadiazol-2-yl]pyrimidin-2-amine]	80 to 89%	–	–	90 to 100%	3.84	≥ 70%	–	–
